Data on five compounds can be found in PMC3039446 (Cancer research, 2010).

Structures are written as SMILES. Entries after “also recorded” stand apart in the source; their conditions may differ. Where two headings read alike, the source gives them in different places. Marks after values point to notes of the source that are not given here.

What is called AUC is concentration integrated over time. In general, Vss refers to a proportionality between amount in the body and measured concentration, not a real space.

One data set has as its system Bovine brain tubulin. Kind of data set: In vitro microtubule. The data set is classed as biochemical. The note with it: 10 μM compound, absorbance 340 nm, 15 min.
The subject of data set [1] is LNCaP. Kind of data set: SRB cytotoxicity assay, LNCaP. The data set is classed as cell-based, human. The note with it: read-out: IC50 ± SEM. On the technique in general: The SRB assay estimates cell density from bound dye.
The subject of data set [2] is PC-3. Kind of data set: SRB cytotoxicity assay, PC-3. The data set is classed as cell-based, human.
Data set [3] concerns Du-145. The data set is described as follows: SRB cytotoxicity assay, Du-145. The data set is classed as cell-based, human.
The test system of data set [4] is PPC-1. Kind of data set: SRB cytotoxicity assay, PPC-1. The data set is classed as cell-based, human.
Data set [5] has as its system B16-F1. Kind of data set: SRB cytotoxicity assay, B16-F1. The data set is classed as cell-based.
For data set [6], the system named is A375. The data set is described as follows: SRB cytotoxicity assay, A375. The data set is classed as cell-based, human.
The test system of a further data set is OVCAR-8. Kind of data set: SRB cytotoxicity assay, OVCAR-8. The data set is classed as cell-based, human.
A further data set has as its system NCI/ADR-RES. The data set is described as follows: SRB cytotoxicity assay, NCI/ADR-RES. The data set is classed as cell-based, human.
Data set [7] has as its system prostate cancer and melanoma cell lines. The data set is described as follows: SRB antiproliferative assay, ranges over the cell line panel. The data set is classed as cell-based, human. The note with it: read-out: IC50 (range over cell lines), Table 1 cell lines.
The next data set has as its system PC-3 and A375 cells. The data set is described as follows: Apoptosis detection by ELISA. The data set is classed as cell-based, human. The conditions noted are these: 24 h treatment.
Data set [8] relates to PC-3 prostate tumor xenograft. The conditions noted are these: for %T/C values (range): both PC-3 and A375 xenograft models, doses 5 to 20 mg/kg.
Data set [9] has as its system ICR mice. Kind of data set: Acute toxicity study in ICR mice. The data set is classed as in vivo. The note with it: 4 consecutive days of intraperitoneal dosing.
For data set [10] the following is noted: rat, in vivo, iv, 2.5 mg/kg.
The subject of the next data set is A375 melanoma xenograft. The note with it: 34 days; for % T/C: A375 melanoma xenograft; for Tumor volume at end of treatment: A375 xenograft, control 2183 ± 279.
The subject of data set [11] is LNCaP. The conditions noted are these: read-out: IC50 ± SEM; LNCaP prostate, SRB; previously reported ref 11; cited from earlier work.
The test system of data set [12] is PC-3. The note with it: read-out: IC50 ± SEM; PC-3 prostate, SRB; previously reported ref 11; cited from earlier work.
In data set [13] the test system is B16-F1. The conditions noted are these: read-out: IC50 ± SEM; B16-F1 melanoma, SRB; previously reported ref 11; cited from earlier work.
Data set [14] relates to A375. The conditions noted are these: read-out: IC50 ± SEM; A375 melanoma, SRB; previously reported ref 11; cited from earlier work.
Data set [15] can be described thus: Pharmacokinetic study in ICR mice, i.v. The note with it: 15 mg/kg i.v.
A short description of data set [16]: Pharmacokinetic study in Sprague-Dawley rats, i.v. The conditions noted are these: 2.5 mg/kg i.v.
The test system of another data set is tubulin. Kind of data set: MS competitive binding assay on tubulin binding sites.
In another data set the test system is PC-3 cells. The data set is classed as cell-based, human.
Data set [17] concerns ICR mice. The conditions noted are these: mouse, 15 mg/kg.
Data set [18] deals with Du-145. The conditions noted are these: read-out: IC50 ± SEM; Du-145 prostate, SRB; previously reported ref 11; cited from earlier work.
The test system of data set [19] is PPC-1. The conditions noted are these: read-out: IC50 ± SEM; PPC-1 prostate, SRB; previously reported ref 11; cited from earlier work.
For data set [20] the following is noted: mice, 15 mg/kg i.v.; ref C. M. Li et al, in press; cited from earlier work.
The conditions of data set [21]: cited from earlier work.
The test system of data set [22] is ICR mice. The data set is described as follows: Rotarod test.
[23] abbreviates: read-out: IC50 ± SEM, OVCAR-8 ovarian (parent), SRB, n = 3.
[24] abbreviates: Homo sapiens, PPC-1, read-out: IC50 ± SEM.
Where [25] appears, read: PC-3 xenograft, 5 mg/kg, start 150 mm^3, control 680 ± 198.
[26] abbreviates: PC-3 xenograft, 15 mg/kg, start 150 mm^3, control 680 ± 198.

As to `COc1cc(C(=O)c2csc(-c3ccc(O)cc3)n2)cc(OC)c1OC` [SMART-OH], the “Inhibition of tubulin polymerization” value with Bovine brain tubulin came out at 55%. The IC50 amounted to 103 ± 9 nM in the data set on LNCaP [1] (LNCaP prostate, SRB, n = 3); 87 ± 5 nM with PC-3 [2] (read-out: IC50 ± SEM, PC-3 prostate, SRB, n = 3); 116 ± 14 nM with Du-145 [3] (read-out: IC50 ± SEM, Du-145 prostate, SRB, n = 3); 76 ± 2 nM with PPC-1 [4] (read-out: IC50 ± SEM, PPC-1 prostate, SRB, n = 3); 113 ± 6 nM with B16-F1 [5] (read-out: IC50 ± SEM, B16-F1 melanoma, SRB, n = 3); 93 ± 11 nM in the data set on A375 [6] (read-out: IC50 ± SEM, A375 melanoma, SRB, n = 3). Also, the IC50 was 110 ± 8 nM with OVCAR-8 (setting [23]); 45 ± 5 nM in the data set with NCI/ADR-RES (read-out: IC50 ± SEM, NCI/ADR-RES ovarian (P-gp over-expressing), SRB, n = 3); 76 to 116 nM in data set [7]. Moreover, the “Resistance Factor” value in the data set on NCI/ADR-RES (NCI/ADR-RES relative to OVCAR-8) is recorded as 0.4. Also, the “Concentration inducing apoptosis (cytoplasmic DNA-histone complexes)” value in the data set on PC-3 and A375 cells is reported as no less than 200 nM. Also, the “Potency relative to SMART-H (fold less)” value in data set [8] (PC-3 xenograft model, SMART-OH at higher dosage) is on record as 10 fold. Moreover, the “Tumor volume at day 21” value in data set [8] (PC-3 xenograft, 50 mg/kg, start 150 mm^3, control 680 ± 198) stood at 331 ± 130 mm^3.
In the case of `CC(=O)O[C@H]1C(=O)[C@@]2(C)[C@H]([C@H](OC(=O)c3ccccc3)[C@]3(O)C[C@H](OC(=O)[C@H](O)[C@@H](NC(=O)c4ccccc4)c4ccccc4)C(C)=C1C3(C)C)[C@]1(OC(C)=O)CO[C@@H]1C[C@@H]2O` [Paclitaxel], the IC50 with PPC-1 [4] (setting [24]) was determined as 2.3 ± 0.8 nM; with OVCAR-8 (Homo sapiens, OVCAR-8, read-out: IC50 ± SEM), 4.7 ± 0.1 nM.
Regarding `COc1cc(C(=O)c2csc(-c3ccc(F)cc3)n2)cc(OC)c1OC` [SMART-F], the “Inhibition of tubulin polymerization” value in the data set with Bovine brain tubulin was found to be 90%. For the same compound, the IC50 is 34 ± 3 nM in the data set on OVCAR-8 (setting [23]); 6 ± 1 nM in the data set on LNCaP [11]; 13 ± 1 nM in the data set on PC-3 [12]; 43 ± 21 nM with B16-F1 [13]; 33 ± 14 nM in the data set with A375 [14]. Besides, in the data set on ICR mice [9], the “Doses that did not cause greater than 10% loss of body weight” value is recorded as no more than 15 mg/kg. In data set [10], this compound showed an AUC of 1600 ng·h/mL. For the same compound, the CL in data set [10] is recorded as 11 mL/min/kg. In data set [10], this compound returned a volume of distribution (Vss) of 34 L/kg. Further, the “Tumor volume by day 21” value in data set [8] (setting [25]) came to 269 ± 177 mm^3; in data set [8] (setting [26]), 292 ± 103 mm^3. The “%T/C values (range)” value in data set [8] is listed as 4–30%. The “% T/C” value in the data set on A375 melanoma xenograft (15 mg/kg i.p. daily, 15 mg/kg) stood at 29%. In the data set on A375 melanoma xenograft (15 mg/kg), the “Tumor volume at end of treatment” value turned out to be 722 ± 135 mm^3. Also, the t1/2 amounted to 2.35 h in data set [15] and 40.17 h in data set [16].
With `COc1cc(C(=O)c2csc(-c3ccccc3)n2)cc(OC)c1OC` [SMART-H], the “Inhibition of tubulin polymerization” value with Bovine brain tubulin came out at 90%. In the data set with tubulin, the “Competition with colchicine binding to tubulin” value was “specifically competed with colchicine binding to tubulin”. In the data set with tubulin, the “Competition with paclitaxel binding to tubulin” value was “did not compete”. In addition, the “Competition with vinblastine binding to tubulin” value in the data set with tubulin is listed as “did not compete”. Further, the IC50 is 35 ± 2 nM in the data set with OVCAR-8 (setting [23]); 29.1 ± 1.1 nM in the data set on PC-3 cells (PC-3 cells from ATCC (in vitro control)); 30.4 ± 0.5 nM in the data set on PC-3 cells (dissociated cells from SMART-H (15 mg/kg, 21 days) treated PC-3 tumors); 29.1 ± 0.8 nM in the data set with PC-3 cells (dissociated cells from vehicle treated PC-3 tumors, 21 days); 28 ± 4 nM in the data set with LNCaP [11]; 21 ± 1 nM in the data set with PC-3 [12]. Further, the IC50 with Du-145 [18] was 71 ± 4 nM; in the data set with PPC-1 [19] it was 43 ± 5 nM; with B16-F1 [13] it was 55 ± 5 nM; in the data set with A375 [14], 28 ± 5 nM. The “Doses that did not cause greater than 10% loss of body weight” value with ICR mice [9] was “up to 30 mg/kg”. Further, the results for the “Tumor volume by day 21” value in data set [8] (setting [25]) and in data set [8] (setting [26]) were 370 ± 103 mm^3 and 176 ± 112 mm^3, respectively. For the same compound, the “%T/C values (range)” value in data set [8] is on record as 4–30%. For the same compound, the “% T/C” value with A375 melanoma xenograft (20 mg/kg i.p. daily, 20 mg/kg) was found to be 28%. Besides, the “Tumor volume at end of treatment” value with A375 melanoma xenograft (20 mg/kg) is given as 775 ± 107 mm^3. Besides, the Neurotoxicity in vivo entry in the data set on ICR mice [17] is “failed to produce any apparent neurotoxicity”. Further, the t1/2 in [20] was 140 ^a min; in [21] (rats, 2.5 mg/kg i.v., ref C. M. Li et al, in press), 1431 ^a min. Moreover, the AUC in [21] (rat, in vivo, iv, 2.5 mg/kg) is 5.8 ^a hr * μg/mL. Moreover, the CL in [21] (rat, in vivo, iv, 2.5 mg/kg) is recorded as 6 ^a mL/min/kg. For the same compound, the Vss in data set [21] (rat, in vivo, iv, 2.5 mg/kg) was 7.6 ^a L/kg. The “Rotarod performance (time on rotating rod) vs vehicle” value in the data set with ICR mice [22] (5 or 15 mg/kg i.p. daily, to day 31) is reported as “no significant difference; also recorded: did not show significant impairment in motor coordination”.
Regarding `CC[C@]1(O)C[C@@H]2CN(CCc3c([nH]c4ccccc34)[C@@](C(=O)OC)(c3cc4c(cc3OC)N(C)[C@H]3[C@@](O)(C(=O)OC)[C@H](OC(C)=O)[C@]5(CC)C=CCN6CC[C@]43[C@@H]65)C2)C1` [Vinblastine], the IC50 with LNCaP [1] (Homo sapiens, LNCaP) was 1.1 ± 0.1 nM; in the data set with PC-3 [2] (Homo sapiens, PC-3, read-out: IC50 ± SEM), 2.1 ± 0.2 nM; with Du-145 [3] (Homo sapiens, DU-145, read-out: IC50 ± SEM) it was 1.8 ± 1.1 nM; in the data set with PPC-1 [4] (setting [24]), 1.1 ± 0.4 nM; in the data set with B16-F1 [5] (Mus musculus, B16-F1, read-out: IC50 ± SEM), 4.7 ± 0.7 nM; in the data set with A375 [6] (Homo sapiens, A-375, read-out: IC50 ± SEM), 1.1 ± 0.2 nM. The “Rotarod performance (time on rotating rod) vs vehicle” value with ICR mice [22] (0.5 mg/kg i.p. daily, to day 31, 0.5 mg/kg) was “gradually reduced the time (in seconds) that the mice could stay on the rotating rod, and attained significance by days 27 and 31; also recorded: lesser ability to stay on the rotating rod”. Also, in the data set with ICR mice [22] (4 weeks after drug treatment was stopped), the “Rotarod post-observation after treatment stopped” value is recorded as “failed to return to baseline”.
